Columns and labels:
[1] = Rat pharmacokinetics, oral dosing; assay type: in vivo, Sprague-Dawley rats; settings: male, Sprague-Dawley, plasma; for half-life: read-out: Rat T1/2
[2] = Rat pharmacokinetics, intravenous dosing; assay type: in vivo, Sprague-Dawley rats; settings: male, Sprague-Dawley, IV bolus dosing at 3.0 mg/kg, plasma
Description: Intravenous dosing: Compounds were formulated at 1.0 mg/mL in a solution comprising 5% polyethylene glycol 400 and 95% (12% (w/v) sulfobutyl-β-cyclodextrin in water) (v/v). Formulated compounds were sterile filtered through a 0.22 micron filter before dosing. Compounds were administered to male, 7-11-week-old Sprague-Dawley rats by jugular vein cannula infusion over 30 minutes at a dose of 1 mg/kg. Oral dosing: Compounds were formulated at 1.0 mg/mL in a solution comprising 5% polyethylene glycol 400 and 95% (12% (w/v) sulfobutyl-β-cyclodextrin in water) (v/v). Formulated compounds were administered to male, 7-11 week old Sprague-Dawley rats by oral gavage at a dose of 10 mg/kg or 3 mg/kg.
Sample collection: Blood collections of about 0.2 mL per time point were performed from jugular vein or other suitable site of each animal, into pre-chilled commercial EDTA-K2 tubes and placed on wet ice until centrifugation. Blood samples were processed for plasma by centrifugation at approximately 4° C., 3,200 g for 10 min. Plasma was collected and transferred into pre-labeled 96 well plate or polypropylene tubes, quick frozen over dry ice and kept at −60° C. or lower until
Data analysis: Plasma concentration versus time data was plotted in graph and analyzed by non-compartmental approaches using the Phoenix WinNonlin 6.3 software program. Related PK parameters were calculated according to dosing route, e.g., CL, Vdss and C0 for intravenous administration, Cmax, Tmax or % F for extravascular administration, and T1/2, AUC(0-t), AUC(0-inf), MRT(0-t), MRT(0-inf) for all routes.

Compound | AUC ([1]; oral dosing at 3 mg/kg) [ng·h/mL] | Cmax ([1]; oral dosing at 3 mg/kg) [ng/mL] | half-life ([1]; oral dosing at 3 mg/kg) [h] | bioavailability ([1]; oral dosing at 3 mg/kg) [%] | AUC ([1]; oral dosing at 10 mg/kg) [ng·h/mL] | Cmax ([1]; oral dosing at 10 mg/kg) [ng/mL] | half-life ([1]; oral dosing at 10 mg/kg) [h] | bioavailability ([1]; oral dosing at 10 mg/kg) [%] | AUC [2] [ng·h/mL] | C0 [2] [ng/mL] | half-life ([2]; read-out: Rat T1/2) [h]
COc1cc(C(=O)O)cc2c1nc(CN1CCC(c3cccc(OCc4ccc(C#N)cc4F)n3)CC1)n2C[C@@H]1CCO1 [Compound 8, (S)-2-((4-(6-((4-Cyano-2-fluorobenzyl)oxy)pyridin-2-yl)piperidin-1-yl)methyl)-4-methoxy-1-(oxetan-2-ylmethyl)-1H-benzo[d]imidazole-6-carboxylic acid] | < 500 | < 500 | ≥ 2.5 | < 25 |  |  |  |  |  |  | 
COc1cc(C(=O)O)cc2c1nc(CN1CCC(c3cccc(OCc4ccc(C#N)cc4F)n3)CC1)n2Cc1cncs1 [Compound 1, 2-((4-(6-((4-Cyano-2-fluorobenzyl)oxy)pyridin-2-yl)piperidin-1-yl)methyl)-4-methoxy-1-(thiazol-5-ylmethyl)-1H-benzo[d]imidazole-6-carboxylic acid] |  |  |  |  | 500 to 2500 | 500 to 1000 | 1.5 to 2.5 | 25 to 50 | < 500 | > 2000 | < 1.5

Source: patent US20240368120A1 (Terns Pharmaceuticals, Inc., priority 2023, published 2024)
